The target of experiment [1] is T1, RXRα (Homo sapiens, UniProt P19793).
T1 construct: expressed in transfected cells
T1 sequence (P19793 1-462): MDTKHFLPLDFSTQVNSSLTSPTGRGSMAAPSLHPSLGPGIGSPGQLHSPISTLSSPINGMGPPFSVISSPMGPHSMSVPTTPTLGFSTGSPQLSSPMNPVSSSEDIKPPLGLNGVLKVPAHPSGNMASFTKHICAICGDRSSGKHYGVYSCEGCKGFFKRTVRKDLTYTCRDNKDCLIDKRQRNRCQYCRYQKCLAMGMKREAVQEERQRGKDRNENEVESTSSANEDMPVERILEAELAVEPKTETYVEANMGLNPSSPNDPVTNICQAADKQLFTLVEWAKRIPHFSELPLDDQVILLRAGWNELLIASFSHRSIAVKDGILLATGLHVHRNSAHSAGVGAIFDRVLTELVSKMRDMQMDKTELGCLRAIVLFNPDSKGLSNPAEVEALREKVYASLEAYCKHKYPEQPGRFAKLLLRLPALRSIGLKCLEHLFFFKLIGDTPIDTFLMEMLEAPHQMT
As to the kind of experiment: RXR receptor transactivation assay. The experiment is classed as cell-based. The note with it: for Emax: read-out: % Eff RXR α transactivation; for EC50: read-out: EC50 RXR α transactivation. The text has this:
The specification of U.S. Pat. No. 5,455,265 is hereby expressly incorporated by reference.
(§1) A holoreceptor transactivation assay and a ligand binding assay which measure the antagonist/agonist like activity of the compounds of the invention, or their ability to bind to the several retinoid receptor subtypes, respectively, are described in published PCT Application No. WO WO93/11755 (particularly on pages 30-33 and 37-41) published on Jun. 24, 1993, the specification of which is also incorporated herein by reference. A detailed experimental procedure for holoreceptor transactivations has been described by Heyman et al. Cell 68, 397-406, (1992); Allegretto et al. J. Biol. Chem. 268, 26625-26633, and Mangelsdorf et al. The Retinoids: Biology, Chemistry and Medicine, pp 319-349, Raven Press Ltd., New York, which are expressly incorporated herein by reference. The results obtained in this assay are expressed in EC50 numbers, as they are also in the chimeric receptor transactivation assay. The results of ligand binding assay are expressed in Kd numbers. (See Cheng et as. Biochemical Pharmacology Vol. 22 pp 3099-3108, expressly incorporated herein by reference.)

Experiment [2] has as its target T2, RXRβ (Homo sapiens, UniProt P28702).
T2 construct: expressed in transfected cells
T2 sequence (P28702 1-533): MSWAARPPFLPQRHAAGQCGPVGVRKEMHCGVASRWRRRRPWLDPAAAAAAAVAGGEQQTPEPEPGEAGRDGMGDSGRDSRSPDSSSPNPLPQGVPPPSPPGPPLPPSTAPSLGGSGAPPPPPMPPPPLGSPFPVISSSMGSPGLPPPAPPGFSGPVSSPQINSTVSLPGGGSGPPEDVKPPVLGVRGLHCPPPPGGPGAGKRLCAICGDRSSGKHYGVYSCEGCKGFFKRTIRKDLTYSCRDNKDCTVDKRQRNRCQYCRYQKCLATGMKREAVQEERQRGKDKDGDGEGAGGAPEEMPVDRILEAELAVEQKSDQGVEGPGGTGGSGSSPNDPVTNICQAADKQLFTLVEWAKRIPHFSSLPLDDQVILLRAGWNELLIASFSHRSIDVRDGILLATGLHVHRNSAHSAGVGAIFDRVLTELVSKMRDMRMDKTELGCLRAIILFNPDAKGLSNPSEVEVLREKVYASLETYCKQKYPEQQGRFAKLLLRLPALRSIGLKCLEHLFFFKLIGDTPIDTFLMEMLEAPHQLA
As to the kind of experiment: RXR receptor transactivation assay. The note with it: for Emax: read-out: % Eff RXR β transactivation; for EC50: read-out: EC50 RXR β transactivation. The experiment is classed as cell-based.
Source text: as §1

The target in experiment [3] is T3, RXRγ (Homo sapiens, UniProt P48443).
T3 construct: expressed in transfected cells
T3 sequence (P48443 1-463): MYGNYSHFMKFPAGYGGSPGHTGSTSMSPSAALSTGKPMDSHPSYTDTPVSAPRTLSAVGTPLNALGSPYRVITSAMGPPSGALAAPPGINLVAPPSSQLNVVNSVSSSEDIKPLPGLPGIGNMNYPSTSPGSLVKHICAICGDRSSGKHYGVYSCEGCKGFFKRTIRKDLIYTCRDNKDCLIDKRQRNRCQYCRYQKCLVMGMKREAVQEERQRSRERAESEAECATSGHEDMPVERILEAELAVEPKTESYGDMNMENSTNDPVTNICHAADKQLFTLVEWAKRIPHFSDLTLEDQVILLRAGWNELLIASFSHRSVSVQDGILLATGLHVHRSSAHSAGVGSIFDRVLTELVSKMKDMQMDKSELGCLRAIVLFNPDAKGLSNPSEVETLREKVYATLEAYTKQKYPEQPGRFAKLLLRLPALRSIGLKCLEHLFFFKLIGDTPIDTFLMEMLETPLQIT
As to the kind of experiment: RXR receptor transactivation assay. The note with it: for Emax: read-out: % Eff RXR γ transactivation; for EC50: read-out: EC50 RXR γ transactivation. The experiment is classed as cell-based.
Source text: as §1

The target in experiment [4] is T1, RXRα. In words: ligand binding assay. The note with it: read-out: Kd RXR α binding.
Source text: as §1

Experiment [5] addresses T3, RXRγ. In words: ligand binding assay. The conditions noted are these: read-out: Kd RXR γ binding.
Source text: as §1

Experiment [6] addresses T2, RXRβ. As to the kind of experiment: ligand binding assay. The note with it: read-out: Kd RXR β binding.
Source text: as §1

For `CC1=CC(C)(C)Oc2cc(C3(C)CC3/C=C/C(C)=C/C(=O)O)ccc21` (centres unmarked) [Compound 28], the values for the Emax in experiment [1], in experiment [2] and in experiment [3] were 103%, 111% and 96%, respectively. For the same compound, the values for the EC50 in experiment [1], in experiment [2] and in experiment [3] were 0.05 nM, 0.46 nM and 0.14 nM, respectively. The values for the Kd in experiment [4] and in experiment [5] were 0.21 nM and 3.1 nM, respectively.
In the case of `CC(/C=C/[C@@H]1C[C@]1(C)c1ccc2c(c1)OC(C)(C)C=C2C(C)C)=C\C(=O)O` [Compound 87], the Emax stood at 102% in experiment [1], 107% in experiment [2] and 116% in experiment [3]. In addition, the EC50 in experiment [1] was found to be 0.1 nM; in experiment [2], 0.3 nM; in experiment [3] it was 0.1 nM. Also, the values for the Kd in experiment [4], in experiment [6] and in experiment [5] were 0.05 nM, 2.9 nM and 0.32 nM, respectively.
For `CCCC1(c2cc(C(C)(C)C)cc(C(C)(C)C)c2)CC1/C=C/C(C)=C/C(=O)O` (single isomer, unassigned; (+)) [Compound 14], the Emax in experiment [1] was determined as 93%; in experiment [2], 80%; in experiment [3], 86%. The values for the EC50 in experiment [1], in experiment [2] and in experiment [3] were 9 nM, 4.3 nM and 1.3 nM, respectively. Besides, the Kd in experiment [4] worked out at 0.03 nM; in experiment [5], 3.7 nM.
As for `CCCCC1=CC(C)(C)Oc2cc([C@@]3(C)C[C@H]3/C=C/C(C)=C/C(=O)O)ccc21` [Compound 89], the Emax in experiment [1] came to 110%; in experiment [2], 99%; in experiment [3] it was 112%. Besides, the EC50 in experiment [1], in experiment [2] and in experiment [3] was 0.1 nM throughout. Besides, the Kd in experiment [4] was 0.19 nM; in experiment [6] it was 0.6 nM; in experiment [5], 1.4 nM.
In the case of `CCC1(c2cc(C(C)C)cc(C(C)C)c2)CC1/C=C/C(C)=C/C(=O)O` (single isomer, unassigned; (+)) [Compound 7], the Emax came to 147% in experiment [1], 152% in experiment [2] and 156% in experiment [3]. For the same compound, the EC50 in experiment [2] is 0.06 nM. In addition, the dissociation constant (Kd) in experiment [4] is 0.05 nM; in experiment [5] it was 7.3 nM.
As for `CC(/C=C/[C@@H]1C[C@]1(C)c1cc(C(C)(C)C)cc(C(C)(C)C)c1)=C\C(=O)O` [Compound 96, 7-(3,5-di-t-Butylphenyl)-(6S,7S)-6,7-methano-3,7-dimethyl-hepta-2E,4E-dienoic acid], the figures for the Emax in experiment [1], in experiment [2] and in experiment [3] were 87%, 85% and 112%, respectively. Further, the EC50 turned out to be 1 nM in experiment [1], 9 nM in experiment [2] and 2 nM in experiment [3]. Moreover, the Kd was found to be 0.6 nM in experiment [4], 1.7 nM in experiment [6] and 2.8 nM in experiment [5].
For `CC(/C=C/[C@@H]1C[C@]1(C)c1ccc2c(c1)C(C(C)(C)C)=CCC2(C)C)=C\C(=O)O` [Compound 57], the Emax amounted to 95% in experiment [1], 95% in experiment [2] and 89% in experiment [3]. In addition, the EC50 in experiment [1] is 0.1 nM; in experiment [2], 0.7 nM; in experiment [3] it was 0.1 nM. Besides, the figures for the dissociation constant (Kd) in experiment [4], in experiment [6] and in experiment [5] were 0.01 nM, 0.8 nM and 4.2 nM, respectively.
`CCCC1(c2ccc3c(c2)C(C(C)(C)C)=CCC3(C)C)CC1/C=C/C(C)=C/C(=O)O` (single isomer, unassigned; (+)) [Compound 22]: the Emax amounted to 94% in experiment [1], 88% in experiment [2] and 110% in experiment [3]. The values for the EC50 in experiment [1], in experiment [2] and in experiment [3] were 0.3 nM, 1.8 nM and 0.8 nM, respectively. The values for the Kd in experiment [4] and in experiment [5] were 0.027 nM and 0.58 nM, respectively.
As to `CC(/C=C/[C@@H]1C[C@]1(C)c1ccc2c(c1)OC(C)(C)C=C2C(C)(C)C)=C\C(=O)O` [Compound 88], the values for the Emax in experiment [1], in experiment [2] and in experiment [3] were 106%, 107% and 105%, respectively. The EC50 in experiment [1], in experiment [2] and in experiment [3] was 0.1 nM each time. Further, the results for the Kd in experiment [4], in experiment [6] and in experiment [5] were 0.17 nM, 1.6 nM and 1.4 nM, respectively.
`CCCC1(c2ccc3c(c2)C(C(C)C)=CCC3(C)C)CC1/C=C/C(C)=C/C(=O)O` (single isomer, unassigned; (+)) [Compound 34]: the Emax in experiment [1] is 105%; in experiment [2], 98%; in experiment [3], 115%. In addition, the EC50 in experiment [1] came out at 0.05 nM; in experiment [2] it was 0.9 nM; in experiment [3], 0.1 nM. Further, the Kd in experiment [4] turned out to be 0.01 nM; in experiment [5], 1.4 nM.
Turning to `CC(/C=C/[C@@H]1C[C@]1(C)c1ccc2c(c1)C(C(C)C)=CCC2(C)C)=C\C(=O)O` [Compound 64, 7(1-Isoproply-4,4-dimethyl-3,4-dihydronaphthalen-7-yl](6S,7S)-6,7-methano-3,7-dimethyl-hepta-2E,4E-dienoic acid], the values for the Emax in experiment [1], in experiment [2] and in experiment [3] were 109%, 109% and 108%, respectively. For the same compound, the EC50 in experiment [1] came out at 0.1 nM; in experiment [2], 0.3 nM; in experiment [3], 0.1 nM. The figures for the Kd in experiment [4], in experiment [6] and in experiment [5] were 0.7 nM, 6 nM and 3 nM, respectively.

What is called EC50 is the concentration giving half of the maximal effect. By Kd is commonly meant a measure of binding affinity in units of concentration.

Values taken from US6403638B1, “2,4-pentadienoic acid derivatives having selective activity for retinoid X (RXR) receptors” (Allergan Sales, Inc., priority 1998, dated 2002).
